Key:
VLA-4 (α4β1 integrin) [1] = biological target: T1, VLA-4 (α4β1 integrin) (Homo sapiens, UniProt P05556+P13612); assay: biochemical; format: binding
Procedure: VLA-4/VCAM-1 Screening Assay
VLA-4 antagonist activity, defined as ability to compete for binding to immobilized VCAM-1, was quantitated using a solid-phase, dual antibody ELISA. VLA-4 (α4β1 integrin) bound to VCAM-1 is detected by a complex of anti-integrin β1 antibody: HRP-conjugated anti-mouse IgG: chromogenic substrate (K-Blue). Initially, this entailed coating 96 well plates (Nunc Maxisorp) with recombinant human VCAM-1 (0.4 μg in 100 μl PBS), sealing each plate and then allowing the plates to stand at 4° C. for Å 18 hr. […] On the day of assay, all plates are washed twice with VCAM Assay Buffer (200 μl/well of 50 mM Tris-HCl. 100 mM NaCl, 1 mM MnCl2), 0.05% Tween 20; pH 7.4). Test compounds are dissolved in 100% DMSO and then diluted 1:20 in VCAM Assay Buffer supplemented with 1 mg/mL BSA (i.e., final DMSO=5%). […] 100 μl per well of each dilution is added to the VCAM-coated plates, followed by 10 μl of Ramos cell-derived VLA-4. These plates are sequentially mixed on a platform shaker for 1 min, incubated for 2 hr at 37° C., and then washed four times with 200 μl/well VCAM Assay Buffer. 100 μl of mouse anti-human integrin β1 antibody is added to each well (0.6 μg/mL in VCAM Assay Buffer+1 mg/mL BSA) and allowed to incubate for 1 hr at 37° C. At the conclusion of this incubation period, all plates are washed four times with VCAM Assay Buffer (200 μl/well). A corresponding second antibody, HRP-conjugated goat anti-mouse IgG (100 μl per well @1:800 dilution in VCAM Assay Buffer+1 mg/mL BSA), is then added to each well, followed by a 1 hr incubation at room temperature and concluded by three washes (200 μl/well) with VCAM Assay Buffer. Color development is initiated by addition of 100 μl K-Blue per well (15 min incubation, room temp) and terminated by addition of 100 μl Red Stop Buffer per well. […] Results are calculated as % inhibition of total binding (i.e. VLA-4+VCAM-1 in the absence of test compound).

VLA-4 (α4β1 integrin) [2] = biological target: T1, VLA-4 (α4β1 integrin); assay: cell-based; format: cell-based
Description: Ramos (VLA-4)/VCAM-1 Cell-Based Screening Assay Protocol
Calcein-AM was purchased from Molecular Probes Inc.
VLA-4 (α4β1 integrin) antagonist activity, defined as ability to compete with cell-surface VLA-4 for binding to immobilized VCAM-1, was quantitated using a Ramos-VCAM-1 cell adhesion assay. Ramos cells bearing cell-surface VLA-4, were labeled with a fluorescent dye (Calcein-AM) and allowed to bind VCAM-1 in the presence or absence of test compounds.
Initially, this entailed coating 96 well plates (Nunc Maxisorp) with recombinant human VCAM-1 (100 ng in 100 μl PBS), sealing each plate and allowing the plates to stand at 4° C. for Å 18 hr. The VCAM-coated plates were subsequently washed twice with 0.05% Tween-20 in PBS, and then blocked for 1 hr (room temperature) with 200 μl of Blocking Buffer (1% BSA/0.02% thimerosal) to reduce non-specific binding. Following the incubation with Blocking Buffer, plates were inverted, blotted and the remaining buffer aspirated. Each plate was then washed with 300 μl PBS, inverted and the remaining PBS aspirated.
Test compounds were dissolved in 100% DMSO and then diluted 1:25 in VCAM Cell Adhesion Assay Buffer (4 mM CaCl2, 4 mM MgCl2 in 50 mM TRIS-HCl, pH 7.5) (final DMSO=4%). […] 100 μl/well of each dilution was added to the VCAM-coated plates, followed by 100 μl of Ramos cells (200,000 cells/well in 1% BSA/PBS). […] Plates were inverted to remove non-adherent cells, blotted and 300 μl/well PBS added. Plates were again inverted, blotted and the remaining buffer gently aspirated. 100 μl Lysis Buffer (0.1% SDS in 50 mM TRIS-HCl, pH 8.5) was added to each well and agitated for 2 min on a rotary shaking platform.

VLA-4 = VLA-4 (Homo sapiens, UniProt P05556+P13612); assay: IC50 of table 7, assay not given; conditions: table 7, Examples 79-84; assay not stated
Sequence of VLA-4 (P13612 34-1032): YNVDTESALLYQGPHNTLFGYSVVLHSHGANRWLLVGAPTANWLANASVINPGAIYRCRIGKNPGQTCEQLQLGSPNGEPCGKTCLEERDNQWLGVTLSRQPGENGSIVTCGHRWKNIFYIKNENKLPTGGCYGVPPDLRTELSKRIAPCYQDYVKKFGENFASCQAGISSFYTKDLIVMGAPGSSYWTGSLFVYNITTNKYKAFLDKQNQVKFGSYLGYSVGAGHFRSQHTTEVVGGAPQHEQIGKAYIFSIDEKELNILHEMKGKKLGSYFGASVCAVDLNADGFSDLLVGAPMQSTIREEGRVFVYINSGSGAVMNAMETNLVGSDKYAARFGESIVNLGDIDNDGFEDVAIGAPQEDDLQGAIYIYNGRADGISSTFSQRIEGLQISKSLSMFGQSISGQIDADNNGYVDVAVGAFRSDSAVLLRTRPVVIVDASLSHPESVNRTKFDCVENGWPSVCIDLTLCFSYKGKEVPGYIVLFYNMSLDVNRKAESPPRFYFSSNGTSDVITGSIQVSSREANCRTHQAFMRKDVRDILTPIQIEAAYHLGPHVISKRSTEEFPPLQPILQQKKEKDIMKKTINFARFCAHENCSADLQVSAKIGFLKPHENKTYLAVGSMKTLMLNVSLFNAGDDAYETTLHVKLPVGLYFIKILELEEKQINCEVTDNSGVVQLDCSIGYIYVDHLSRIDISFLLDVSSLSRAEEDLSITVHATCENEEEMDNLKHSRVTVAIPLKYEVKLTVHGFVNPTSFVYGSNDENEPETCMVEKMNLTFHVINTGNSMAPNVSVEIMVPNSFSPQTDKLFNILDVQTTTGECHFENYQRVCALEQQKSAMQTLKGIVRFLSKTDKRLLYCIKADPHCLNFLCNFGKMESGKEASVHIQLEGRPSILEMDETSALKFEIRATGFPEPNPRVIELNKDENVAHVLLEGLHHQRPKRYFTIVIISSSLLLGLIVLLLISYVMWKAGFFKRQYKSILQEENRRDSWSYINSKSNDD
Sequence of VLA-4 (P05556 21-798): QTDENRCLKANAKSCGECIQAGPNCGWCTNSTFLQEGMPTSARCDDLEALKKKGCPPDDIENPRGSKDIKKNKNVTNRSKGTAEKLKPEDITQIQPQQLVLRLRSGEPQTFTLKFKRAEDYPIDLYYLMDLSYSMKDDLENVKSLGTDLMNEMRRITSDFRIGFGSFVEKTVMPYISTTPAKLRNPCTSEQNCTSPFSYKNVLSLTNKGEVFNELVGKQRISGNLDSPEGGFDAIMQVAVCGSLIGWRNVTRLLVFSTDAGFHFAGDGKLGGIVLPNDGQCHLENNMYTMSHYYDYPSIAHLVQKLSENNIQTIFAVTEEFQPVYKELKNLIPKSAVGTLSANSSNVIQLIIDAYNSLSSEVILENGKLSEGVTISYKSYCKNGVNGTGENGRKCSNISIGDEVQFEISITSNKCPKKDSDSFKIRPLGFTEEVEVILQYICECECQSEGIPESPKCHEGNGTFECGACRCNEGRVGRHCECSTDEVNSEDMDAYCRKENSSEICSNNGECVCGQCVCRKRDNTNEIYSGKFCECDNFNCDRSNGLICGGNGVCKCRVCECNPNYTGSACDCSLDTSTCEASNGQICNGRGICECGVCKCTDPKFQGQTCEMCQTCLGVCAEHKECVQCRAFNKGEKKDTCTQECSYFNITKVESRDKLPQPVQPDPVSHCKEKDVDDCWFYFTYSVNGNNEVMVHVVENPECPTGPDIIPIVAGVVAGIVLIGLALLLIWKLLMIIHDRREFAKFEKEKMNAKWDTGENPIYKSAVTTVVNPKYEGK

[3] = table 9, Examples 97-102, assay not given, values equal ELISA table 13, read-out: IC50
[4] = table 13, competition for binding of Ramos cell-derived VLA-4 to immobilized VCAM-1, read-out: ELISA IC50
[5] = table 14, Ramos cells binding to immobilized VCAM-1, read-out: Ramos IC50
[6] = table 11, Examples 151-155, assay not given, values equal Ramos table 14, read-out: IC50
[7] = table 12, Examples 156-160, assay not given, values equal Ramos table 14, read-out: IC50

T1 sequence (P13612 34-1032): as the sequence (P13612 34-1032) above
T1 sequence (P05556 21-798): as the sequence (P05556 21-798) above

Compound | IC50 (VLA-4 (α4β1 integrin) [1]; [4]) [nM] | IC50 (VLA-4 (α4β1 integrin) [2]; [5]) [nM] | further results
CC(=O)N1[C@H](CC(C)C)C(=O)N(c2ccc(C[C@H](NC(=O)c3c(C)cccc3Cl)C(=O)O)cc2)[C@@H]1C(C)(C)C [Example 102] | – | – | IC50 (VLA-4 (α4β1 integrin) [1]; [3]): 41 nM
O=C(Nc1ccc(C[C@H](NC(=O)c2cccc3ccccc23)C(=O)O)cc1)c1c(Cl)cccc1Cl [Example 15] | 5.9 | 2.6 | –
COc1ccc(Br)c(C(=O)N[C@@H](Cc2ccc(NC(=O)c3c(Cl)cccc3Cl)cc2)C(=O)O)c1 [Example 24] | – | 20 | –
4-[(2S,4R)-3-Acetyl-2-phenyl-4-(3-pyridinylmethyl)-5-oxo-1-imidazolinyl]-N- [(2-chloro-6-methylphenyl)carbonyl]-L-phenylalanine and 4-[(2R,4R)-3-acetyl-2-phenyl-4-(3-pyridinylmethyl)-5-oxo-1-imidazolinyl)-N-[(2-chloro-6-methylphenyl)carbonyl]-L-phenylalanine [Example 171] | – | 13.5 | –
O=C(N[C@@H](Cc1ccc(NC(=O)c2c(Cl)cccc2Cl)cc1)C(=O)O)c1cccc(Cl)c1Cl [Example 20] | – | 1.63 | –
Cc1cccc(Cl)c1C(=O)NC(Cc1ccc(N2C(=O)C3Cc4ccccc4CN3C2=O)cc1)C(=O)O (stereo not shown) [Example 83] | – | – | IC50 (VLA-4): 72 nM
Cc1cccc(C(=O)N[C@@H](Cc2ccc(NC(=O)c3c(Cl)cccc3Cl)cc2)C(=O)O)c1Cl [Example 21] | – | 1.27 | –
Cc1cc(C[C@H](NC(=O)c2c(C)cccc2Cl)C(=O)O)ccc1NC(=O)c1cccc([N+](=O)[O-])c1 [Example 122] | 0.67 | 430 | –
CC(=O)N1[C@H](CC(C)C)C(=O)N(c2ccc(C[C@H](NC(=O)c3c(C)cccc3Cl)C(=O)O)cc2)[C@@H]1c1ccc(O)cc1 [Example 98] | – | – | IC50 (VLA-4 (α4β1 integrin) [1]; [3]): 2.35 nM
Cc1cccc(Cl)c1C(=O)N[C@@H](Cc1ccc(N2C(=O)[C@H](C(C)C)N(C)C2=O)cc1)C(=O)O [Example 80] | – | – | IC50 (VLA-4): 24 nM
Cc1cccc(Cl)c1C(=O)N[C@@H](Cc1ccc(NC(=O)c2nn(-c3ccccc3)nc2C)cc1)C(=O)O [Example 154] | – | – | IC50 (VLA-4 (α4β1 integrin) [2]; [6]): 2470 nM
Cc1nn(-c2ccccc2)nc1C(=O)N[C@@H](Cc1ccc(NC(=O)c2c(Cl)cccc2Cl)cc1)C(=O)O [Example 159] | – | – | IC50 (VLA-4 (α4β1 integrin) [2]; [7]): 988 nM
Cc1noc(C)c1C(=O)N[C@@H](Cc1ccc(NC(=O)c2c(Cl)cccc2Cl)cc1)C(=O)O [Example 158] | – | – | IC50 (VLA-4 (α4β1 integrin) [2]; [7]): 946 nM
Cc1cc2ncc(C(=O)Nc3ccc(C[C@H](NC(=O)c4c(C)cccc4Cl)C(=O)O)cc3)c(C)n2n1 [Example 155] | – | – | IC50 (VLA-4 (α4β1 integrin) [2]; [6]): 644 nM
CSc1ccccc1C(=O)N[C@@H](Cc1ccc(NC(=O)c2c(Cl)cccc2Cl)cc1)C(=O)O [Example 25] | 0.42 | 103 | –
O=C(Nc1ccc(C[C@H](NC(=O)c2c(F)cccc2C(F)(F)F)C(=O)O)cc1)c1c(Cl)cccc1Cl [Example 16] | 0.44 | – | –
Cc1cccc(Cl)c1C(=O)N[C@@H](Cc1ccc(N2C(=O)[C@H](C)N(C)C2=O)cc1)C(=O)O [Example 79] | – | – | IC50 (VLA-4): 53 nM
Cc1cccc(Cl)c1C(=O)N[C@@H](Cc1ccc(N2C(=O)[C@H](Cc3ccccc3)N(C)C2=O)cc1)C(=O)O [Example 84] | – | – | IC50 (VLA-4): 73 nM
Cc1cccc(Cl)c1C(=O)N[C@@H](Cc1ccc(N2C(=O)[C@@H](CC(C)C)N(C)C2=O)cc1)C(=O)O [Example 82] | – | – | IC50 (VLA-4): 56 nM
Cc1cccc(Cl)c1C(=O)N[C@@H](Cc1ccc(NC(=O)c2sc(C(C)C)nc2C)cc1)C(=O)O [Example 152] | – | – | IC50 (VLA-4 (α4β1 integrin) [2]; [6]): 967 nM
CC(C)(C)c1ccccc1C(=O)N[C@@H](Cc1ccc(NC(=O)c2c(Cl)cccc2Cl)cc1)C(=O)O [Example 17] | 1.85 | – | –
O=C(N[C@@H](Cc1ccc(NC(=O)c2c(Cl)cccc2Cl)cc1)C(=O)O)c1ccc(Br)cc1Cl [Example 22] | – | 1.32 | –
COc1ccc(C(=O)N[C@@H](Cc2ccc(NC(=O)c3c(Cl)cccc3Cl)cc2)C(=O)O)c(Cl)c1 [Example 19] | 1.87 | – | –
O=C(N[C@@H](Cc1ccc(NC(=O)c2c(Cl)cccc2Cl)cc1)C(=O)O)c1ccccc1Cc1ccccc1 [Example 31, 4-[[(2,6-dichlorophenyl)carbonyl]amino]-N-[[(2-phenylmethyl)phenyl]carbonyl]-L-phenylalanine] | 0.51 | – | –
CC(=O)N1CN(c2ccc(C[C@H](NC(=O)c3c(C)cccc3Cl)C(=O)O)cc2)C(=O)[C@@H]1CC(C)C [Example 101] | – | – | IC50 (VLA-4 (α4β1 integrin) [1]; [3]): 9.9 nM
Cc1ccc(Cl)c(C(=O)N[C@@H](Cc2ccc(NC(=O)c3c(Cl)cccc3Cl)cc2)C(=O)O)c1 [Example 23] | 0.48 | 316 | –
CCc1cccc(C)c1C(=O)N[C@@H](Cc1ccc(NC(=O)c2c(Cl)cccc2Cl)cc1)C(=O)O [Example 92] | 0.42 | 255 | IC50 (VLA-4 (α4β1 integrin) [2]; table 8, Examples 90-95, read-out: IC50 Ramos): 10 nM
CC(=O)N1[C@H](CC(C)C)C(=O)N(c2ccc(C[C@H](NC(=O)c3c(C)cccc3Cl)C(=O)O)cc2)[C@H]1c1ccc(O)cc1 [Example 97] | – | – | IC50 (VLA-4 (α4β1 integrin) [1]; [3]): 0.44 nM
Cc1cccc(Cl)c1C(=O)N[C@@H](Cc1ccc(NC(=O)c2c(C)noc2C)cc1)C(=O)O [Example 153] | – | – | IC50 (VLA-4 (α4β1 integrin) [2]; [6]): 975 nM

The next lines start with results.

IC50 (VLA-4 (α4β1 integrin) [1]; [4]) [nM] | IC50 (VLA-4 (α4β1 integrin) [2]; [5]) [nM] | Compound | further results
4.5 | 439 | Cc1cc(C[C@H](NC(=O)c2c(C)cccc2Cl)C(=O)O)ccc1NC(=O)CCc1cccc(O)c1 [Example 120] | –
1.7 | 316 | Cc1cc(C[C@H](NC(=O)c2c(C)cccc2Cl)C(=O)O)ccc1NC(=O)c1c(Cl)cccc1Cl [Example 123] | –
5.8 | 515 | Cc1cc(C[C@H](NC(=O)c2c(C)cccc2Cl)C(=O)O)ccc1NC(=O)Cc1cccc(O)c1 [Example 121] | –
0.63 | 22 | COc1ccc(Br)c(C(=O)N[C@@H](Cc2ccc(NC(=O)c3c(C)ccnc3C)cc2)C(=O)O)c1 [Example 108] | –

Reference: US6229011A, “N-aroylphenylalanine derivative VCAM-1 inhibitors” (Hoffman-La Roche Inc., priority 1998, dated 2001)
